According to patent US10196356B2, “Mixed disulfide conjugates of thienopyridine compounds and uses thereof” (The Regents of the University of Michigan, priority 2013, dated 2019):
Like-named read-outs stand apart in the source and are kept apart here.

Legend:
[1] = Rate of formation of the AM from 2-oxoclopidogrel by HLMs in the presence of various thiol reductants; format: in vitro ADME, human; details: 0.3 mM thiol reductant; HLM, 0.1 mM 2-oxoclopidogrel
Experimental: The AM was produced in 0.1 ml of 50 mM KP buffer (pH 7.4) containing 0.2 mg/ml HLM, 0.1 mM 2-oxoclopidogrel, the NADPH-regenerating system, and the thiol reductants. The concentrations of the thiol reductants were 1 mM except for CPT, DFT and NPT which were 0.3 mM each. The reaction was initiated by the addition of 5 units of G6PD and incubated at 37° C. for 20 min. The active metabolite was then quantitated as the MP derivative as described in Materials and Methods. The reported rates were averaged over three separate measurements.
To examine the effects of various thiol reductants on the formation of the active metabolite (AM), the rates at which the AM was produced were determined. Production of the AM was performed in 0.1 ml of 50 mM potassium phosphate (KPi) buffer (pH 7.4) containing 0.2 mg/mL HLM, 0.1 mM 2-oxoclopidogrel, the NADPH-regenerating system, and 1 mM of each of the thiol reductants except that 0.3 mM CPT, DFT, or NPT were used. The reaction was initiated by the addition of 5 units of glucose-6-phosphate dehydrogenase (G6PD) and incubated at 37° C. for 20 min. The AM was then derivatized with 4 mM MPB at room temperature for 10 min, followed by acidification with acetic acid to 3% (v/v). For quantification, 50 pmoles of (S)-clopidogrel was added into each reaction mixture as internal standard (IS). The derivatized AM (AM-MP) was quantitated using LC-MS/MS.
The MS analyses of the reaction mixture were performed on an ion-trap mass spectrometer (LCQ DecaXP, Thermo Fisher Scientific, Waltham, Mass.) as reported previously (Zhang et al., 2012). In brief, the metabolites of 2-oxoclopidogrel were separated on a reverse phase C18 column (2×100 mm, 3 μm, Phenemonex, Calif.) using a binary mobile phase at a flow rate of 0.2 ml/min. The temperature of the C18 column was maintained at 40° C. using a column heater (Restek Corporation, Lancaster, Pa.). […] Transitions from m/z 504→m/z 354 for the AM-MP and from m/z 322→m/z 212 for the IS were used to quantitate the amount of the AM-MP based on a calibration curve consisting of various concentrations of cis-clopidogrel-MP.

[2] = Formation of mixed disulfide conjugates of clopidogrel by HLMs (Km of thiol); format: in vitro ADME, human; details: 2-oxoclopidogrel, read-out: Km for the formation of the mixed disulfide conjugate
Experimental: The mixed disulfide conjugates were produced by HLMs for both structural and semi-quantitative analyses. Metabolism of 2-oxoclopidogrel was performed in 0.2 ml of 50 mM KP buffer (pH 7.4) as described above except that the concentration of HLMs was increased to 1 mg/ml. The reaction was incubated at 37° C. for 30 min and then quenched by the addition of 0.1 ml of 10% of acetic acid in acetonitrile. The quenched samples were centrifuged at 13,000×g for 10 min to remove the HLMs. Aliquots of 50 μl of the supernatant were loaded onto a mass spectrometer to analyze both the active and conjugate metabolites.
The MS analyses were performed as described above except that the MS detector was operated in the dependent scan mode. The precursor ions were scanned from m/z 300-700, whereas the MS^2 spectra were obtained from m/z 100 to 700 for the four most abundant ions. For semi-quantitative analysis, 50 pmoles of the IS was spiked into each sample that had been quenched. The relative amounts of the AM and respective conjugates were calculated as the AUC ratios of the metabolites to that of the IS.

platelet aggregation = test: In vivo antiplatelet activity after intravenous injection; parameters: species or system male New Zealand (NZ) white rabbits
Experimental: FIG. 9 presents platelet activities of male NZ white rabbits following IV injection of (S)-clopNPT as described in Example X.
The antiplatelet activity of the mixed disulfide conjugates of clopidogrel was determined using male NZ white rabbits (1.2-1.25 kg).
To prepare intravenous solution, (S)-clopNPT was dissolved at 0.7 mg/ml in a mixture of N,N-dimethylacetamide (DMA), polyethylene glycol (PEG) 400, and saline at 5, 15 and 80 (v/v) ratio. The male NZ white rabbits were dosed at 2 mg/kg of (S)-clopNPT using two different methods. In Method 1, the intravenous solution was first mixed with 5 mM glutathione. After an incubation of 15 min at 37° C. to activate (S)-clopNPT, the mixture was intravenously injected to the rabbit via the jugular vein. In Method 2, the male NZ white rabbit was fed with 5 ml of Readisorb glutathione solution once daily for three days to increase cellular glutathione concentrations. On the third day, (S)-clopNPT dissolved in DMA/PEG400/saline was injected intravenously to the Readisorb-treated rabbit. As a negative control, (S)-clopidogrel was dosed intravenously to a male NZ white rabbit at 2 mg/kg as well. Prior to and 1 and 2 hours after dosing (S)-clopNPT, whole blood was drawn from the carotid artery into a plastic syringe containing 3.7% sodium citrate as the anticoagulant (1:10 volume ratio of citrate to blood). A whole blood cell count was determined with a Medonic CA620 hematology analyzer (Clinical Diagnostic Solutions, Inc., Plantation, Fla., USA). Platelet-rich plasma (PRP), the supernatant present after centrifugation of whole blood at 100×g for 10 min, was diluted with platelet-poor plasma (PPP) to achieve a platelet count of approximately 300,000/μl. […] Platelet aggregation was assessed by established nephelometric methods with the use of a 4-channel aggregometer (BioData PAP-4; BioData Corp., Horsham, Pa., USA) by recording the increase in light transmission through a stirred suspension of PRP maintained at 37° C. […]

[3] = test system: platelets (P2Y12 receptor); test: Ex vivo anti-platelet activity of the mixed disulfide conjugates (ADP-induced aggregation, aggregometer); format: cell-based, New Zealand white rabbits; details: free GSH 1 mM in PRP; 10 μM ADP
Experimental: The mixed disulfide conjugates were prepared and purified from the reaction mixtures in the presence of 0.3 mM CPT and NPT, along with three control samples containing either 1 mM GSH, no thiol reductant or no G6PD. All samples were re-suspended in 0.5 ml PPP, some of which were treated to 1 mM GSH to release the AM. Platelet aggregation was initiated by the addition of 10 μM ADP and recorded with an aggregometer. The percentage of aggregation was normalized to that of PRP and averaged over four separate measurements. For details, see Materials and Methods. Legend: PRP, untreated platelet-rich plasma; GSH, 1 mM GSH in PRP; −G6PD, metabolites produced in the absence of G6PD; —SH, metabolites produced in the absence of any thiol reductants; GSH, metabolites produced in the presence of 1 mM GSH; CPT, metabolites produced in the presence of 0.3 mM CPT; CPT+GSH, metabolites produced in the presence of 0.3 mM CPT and then treated with 1 mM GSH; NPT, metabolites produced in the presence of 0.3 mM NPT; NPT+GSH, metabolites produced in the presence of 0.3 mM NPT and then treated with 1 mM GSH.
In order to generate sufficient quantities of the mixed disulfide conjugates, the metabolism of 2-oxoclopidogrel was performed in 2-ml reaction mixtures containing 1 mg/ml HLM, 0.1 mM 2-oxoclopidogrel, the NADPH-regenerating system, and 0.3 mM CPT or NPT or 1 mM GSH. The reaction was initiated by the addition of 10 units G6PD and incubated at 37° C. for 50 min. Two control samples were prepared in parallel. […] After an incubation of 50 min, the reaction mixtures were centrifuged at 13,000×g to remove the HLMs. The supernatants were loaded onto SPE C18 cartridges to enrich the mixed disulfide conjugates. After extensive washing with water to remove salts and other water-soluble metabolites, the conjugate samples were eluted with 2 ml of methanol. The methanolic fractions were dried using a Speedvac concentrator and the dried samples were then re-suspended in 1 ml of platelet-poor plasma (PPP). Prior to the anti-platelet activity assays, the re-suspended conjugates were divided into two equal volumes (0.5 ml each), one of which was treated with 1 mM GSH at 37° C. for 30 min to generate the AM. Both samples were then placed on ice until use.
The procedures used to determine ex vivo anti-platelet activity were previously reported (see, e.g., Abell L M and Liu E C (2011) J Pharm Exp Ther 339(2):589-596).
Male New Zealand white rabbits (2.2-2.9 kg) were used as blood donors. Whole blood was drawn from a central ear artery into a plastic syringe containing 3.7% sodium citrate as the anticoagulant (1:10 volume ratio of citrate to blood). A whole blood cell count was determined with a Medonic CA620 hematology analyzer (Clinical Diagnostic Solutions, Inc., Plantation, Fla., USA). Platelet-rich plasma (PRP), the supernatant present after centrifugation of whole blood at 100×g for 10 min, was diluted with PPP to achieve a platelet count of approximately 300,000/μl. Platelet-poor plasma was prepared by centrifuging the remaining blood at 1,500×g for 10 min and discarding the bottom cellular layer. The diluted PRP was divided into 0.5 ml samples, centrifuged again at 170×g for 10 mins, and the resulting supernatant was discarded. The platelet pellets were re-suspended in platelet-poor plasma containing the various chemical inhibitors prepared as described previously and incubated with gentle shaking at 37° C. for 60 min to modify the P2Y12 receptor. Ex vivo platelet aggregation was assessed by established nephelometric methods with the use of a 4-channel aggregometer (BioData PAP-4; BioData Corp., Horsham, Pa., USA) by recording the increase in light transmission through a stirred suspension of PRP maintained at 37° C. Platelet aggregation was induced with ADP (10 μM). A subaggregatory concentration of epinephrine (550 nM) was used to prime the platelets before addition of the agonist.

[4] = read-out: Km for GSH; previously reported (Zhang 2012); cited from earlier work

Structure (SMILES) | formation of the AM (in words) [1] | Km [2] [µM] | further results
Sc1ccc(Cl)nn1 [CPT, 6-chloropyridazine-3-thiol] | No AM was observed | 23 | 
COC(=O)C(c1ccccc1Cl)N1CCC(SSc2ncccc2[N+](=O)[O-])C(=CC(=O)O)C1 [(S)-clopNPT] |  |  | inhibition of platelet activity (platelet aggregation; 2 mg/kg IV, Readisorb-treated rabbit, within one hour of IV injection): ~70%; inhibition of platelet aggregation (platelet aggregation; 2 mg/kg IV, dosed with glutathione or to Readisorb glutathione treated rabbit): more than 50%
Cc1cc(S)c(C)o1 [DFT, 2,5-dimethylfuran-3-thiol] | No AM was observed | 30 | 
COC(=O)[C@H](c1ccccc1Cl)N1CCc2sccc2C1 [(S)-clopidogrel, (+)-(S)-methyl 2-(2-chlorophenyl)-2-(6,7-dihdrothieno[3,2-c]pyridine-5(4H)-yl)acetate, reference compound] |  |  | inhibition of platelet aggregation (in words) (platelet aggregation; 2 mg/kg intravenously, blood 1 and 2 hours after dosing, 10 μM ADP): did not inhibit platelet aggregation
N[C@@H](CCC(=O)N[C@@H](CS)C(=O)NCC(=O)O)C(=O)O [GSH, glutathione, reference compound] |  |  | effect on platelet aggregation [3]: no effect on platelet aggregation; Km [4]: 300 µM
O=[N+]([O-])c1cccnc1S [NPT, 3-nitropyridine-2-thiol] | No AM was observed | 51 | 
